Results reported in ChEMBL document CHEMBL5230141, “Focused Libraries for Epigenetic Drug Discovery: The Importance of Isosteres” (J Med Chem, 2021).

Assays:
[1] = target: Histone-lysine N-methyltransferase EZH2 (Homo sapiens, UniProt Q15910); experiment: Inhibition of EZH2 (unknown origin)
[2] = Inhibition of PI3K (unknown origin); design: species or system Homo sapiens

Chain of Histone-lysine N-methyltransferase EZH2 (Q15910 whole entry): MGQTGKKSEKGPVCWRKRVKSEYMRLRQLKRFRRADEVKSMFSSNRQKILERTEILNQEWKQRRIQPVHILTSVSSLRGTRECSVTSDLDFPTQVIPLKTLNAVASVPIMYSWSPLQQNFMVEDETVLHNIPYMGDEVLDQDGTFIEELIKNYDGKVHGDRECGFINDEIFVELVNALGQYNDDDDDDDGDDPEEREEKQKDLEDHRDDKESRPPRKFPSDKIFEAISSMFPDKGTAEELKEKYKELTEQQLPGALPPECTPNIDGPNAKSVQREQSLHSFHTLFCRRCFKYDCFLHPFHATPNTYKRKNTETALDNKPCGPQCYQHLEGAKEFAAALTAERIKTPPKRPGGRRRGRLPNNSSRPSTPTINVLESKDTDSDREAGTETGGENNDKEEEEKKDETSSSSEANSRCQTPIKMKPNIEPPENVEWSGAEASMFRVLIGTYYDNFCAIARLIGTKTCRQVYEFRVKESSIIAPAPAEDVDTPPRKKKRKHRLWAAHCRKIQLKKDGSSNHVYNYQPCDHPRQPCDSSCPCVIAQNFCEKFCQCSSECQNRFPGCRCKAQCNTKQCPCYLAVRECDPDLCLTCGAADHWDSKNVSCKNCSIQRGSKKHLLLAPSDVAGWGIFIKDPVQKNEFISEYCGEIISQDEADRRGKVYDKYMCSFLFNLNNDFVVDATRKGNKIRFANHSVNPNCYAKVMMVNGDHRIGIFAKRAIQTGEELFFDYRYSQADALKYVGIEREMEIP

EC50 [1]	SMILES	Kd [2]
3400 nM	Cc1cc(C)c(CNC(=O)c2cc(C)n(C3CCCCC3)c2C)c(=O)[nH]1	–
–	CC(C)Oc1ccc(-c2nn([C@@H](C)c3oc4ccc(F)cc4c(=O)c3-c3cccc(F)c3)c3ncnc(N)c23)cc1F [UMBRALISIB]	6.2 nM
